Consider 25 compounds from patent US6753322B2, “2-aminocarbonyl-9H-purine derivatives” (Pfizer Inc, priority 2000, dated 2004).

Structures are written as SMILES.

For the assay, the system named is neutrophils activated by fMLP. Kind of assay: superoxide production from neutrophils activated by fMLP. In kind it is cell-based. Conditions: Neutrophil; concentration giving 50% inhibition of fMLP-induced superoxide production compared to control response; human peripheral blood neutrophils, cytochalasin B priming, adenosine deaminase present, cytochrome C reduction readout. The method, then:
This is evaluated by determining the compound profile in an assay where superoxide production was measured from neutrophils activated by fMLP. Neutrophils were isolated from human peripheral blood using dextran sedimentation followed by centrifugation through Ficoll-Hypaque solution. Any contaminating erythrocytes in the granulocyte pellet were removed by lysis with ice-cold distilled water. Superoxide production from the neutrophils was induced by fMLP in the presence of a priming concentration of cytochalasin B. Adenosine deaminase was included in the assay to remove any endogenously produced adenosine that might suppress superoxide production. The effect of the compound on the fMLP-induced response was monitored colorometrically from the reduction of cytochrome C within the assay buffer. The potency of the compounds was assessed by the concentration giving 50% inhibition (IC50) compared to the control response to fMLP.
One may read the IC50 as the midpoint of a concentration-inhibition curve. Read a high IC50 as weaker potency in that assay. For `CCNC(=O)[C@H]1O[C@@H](n2cnc3c(NCC(c4ccccc4)c4ccccc4)nc(C(=O)NCCNC(=O)NCCN4CCCCC4)nc32)[C@H](O)[C@@H]1O` [Example 1, 6-[(2,2-Diphenylethyl)amino]-9-{(2R,3R,4S,5S)-5-[(ethylamino)carbonyl]-3,4-dihydroxytetrahydro-2-furanyl}-N-{2-[({[2-(1-piperidinyl)ethyl]amino}carbonyl)amino]ethyl}-9H-purine-2-carboxamide], the IC50 is less than 100 nM.

Regarding `CCNC(=O)[C@H]1O[C@@H](n2cnc3c(NCC(c4ccccc4)c4ccccc4)nc(C(=O)NCCNC(=O)NCCN(C(C)C)C(C)C)nc32)[C@H](O)[C@@H]1O` [Example 2], the IC50 is less than 100 nM.

Compound `O=C(NCCNC(=O)c1nc(NCC(c2ccccc2)c2ccccc2)c2ncn([C@@H]3O[C@H](CO)[C@@H](O)[C@H]3O)c2n1)NCCN1CCCCC1` [Example 3, 9-[(2R,3R,4S,5R)-3,4-Dihydroxy-5-(hydroxymethyl)tetrahydro-2-furanyl]-6-[(2,2-diphenylethyl)amino]-N-{2-[({[2-(1-piperidinyl)ethyl]amino}carbonyl)amino]ethyl}-9H-purine-2-carboxamide] showed an IC50 of less than 100 nM.

As to `CC(C)N(CCNC(=O)NCCNC(=O)c1nc(NCC(c2ccccc2)c2ccccc2)c2ncn([C@@H]3O[C@H](CO)[C@@H](O)[C@H]3O)c2n1)C(C)C` [Example 4], the 50% inhibitory concentration (IC50) was less than 100 nM.

`CCNC(=O)[C@H]1O[C@@H](n2cnc3c(NCC(c4ccccc4)c4ccccc4)nc(C(=O)NCCNC(=O)NCCN4CCC(C(C)C)CC4)nc32)[C@H](O)[C@@H]1O` [Example 5, 6-[(2,2-Diphenylethyl)amino]-9-{(2R,3R,4S,5S)-5-[(ethylamino)carbonyl]-3,4-dihydroxytetrahydro-2-furanyl}-N-{2-[({[2-(4-isopropyl-1-piperidinyl)ethyl]amino}carbonyl)amino]ethyl}-9H-purine-2-carboxamide]: the 50% inhibitory concentration (IC50) is less than 100 nM.

As for `CCNC(=O)[C@H]1O[C@@H](n2cnc3c(NCC(c4ccccc4)c4ccccc4)nc(C(=O)NCCNC(=O)NCCN(C(C)C)C4CCCC4)nc32)[C@H](O)[C@@H]1O` [Example 6, N-(2-{[({2-[Cycopentyl(isopropyl)amino]ethyl}amino)carbonyl]amino}ethyl)-6-[(2,2-diphenylethyl)amino]-9-{(2R,3R,4S,5S)-5-[(ethylamino)carbonyl]-3,4-dihydroxytetrahydro-2-furanyl}-9H-purine-2-carboxamide], the IC50 is less than 100 nM.

`CCNC(=O)[C@H]1O[C@@H](n2cnc3c(NCC(c4ccccc4)c4ccccc4)nc(C(=O)NCCNC(=O)NCCN(C(C)C)C4CCCCC4)nc32)[C@H](O)[C@@H]1O` [Example 7, N-(2-{[({2-[Cyclohexyl(isopropyl)amino]ethyl}amino)carbonyl]amino}ethyl)-6-[(2,2-diphenylethyl)amino]-9-{(2R,3R,4S,5S)-5-[(ethylamino)carbonyl]-3,4-dihydroxytetrahydro-2-furanyl}-9H-purine-2carboxamide] displayed a half-inhibitory concentration (IC50) of less than 100 nM.

The compound `CCNC(=O)[C@H]1O[C@@H](n2cnc3c(NCC(c4ccccc4)c4ccccc4)nc(C(=O)NCCNC(=O)NC4CCN(c5ccccn5)CC4)nc32)[C@H](O)[C@@H]1O` [Example 8, 6-[(2,2-Diphenylethyl)amino]-9-{(2R,3R,4S,5S)-5-[(ethylamino)carbonyl]-3,4-dihydroxytetrahydro-2-furanyl}-N-{2-[({[1-(2-pyridinyl)-4-piperidinyl]amino}carbonyl)amino]ethyl}-9H-purine-2-carboxamide] displayed a half-inhibitory concentration (IC50) of less than 100 nM.

In the case of `CCCCN(CCCC)CCNC(=O)NCCNC(=O)c1nc(NCC(c2ccccc2)c2ccccc2)c2ncn([C@@H]3O[C@H](C(=O)NCC)[C@@H](O)[C@H]3O)c2n1` [Example 9], the IC50 is less than 100 nM.

Compound `CCNC(=O)[C@H]1O[C@@H](n2cnc3c(NCC(c4ccccc4)c4ccccc4)nc(C(=O)NCCNC(=O)NC4CCN(Cc5ccccc5)CC4)nc32)[C@H](O)[C@@H]1O` [Example 10] yielded a half-maximal inhibitory concentration (IC50) of less than 100 nM.

Turning to `CCNC(=O)[C@H]1O[C@@H](n2cnc3c(NCC(c4ccccc4)c4ccccc4)nc(C(=O)NCCNC(=O)NCCN(Cc4ccccc4)C(C)C)nc32)[C@H](O)[C@@H]1O` [Example 11], the IC50 was less than 100 nM.

`CCNC(=O)[C@H]1O[C@@H](n2cnc3c(NCC(c4ccccc4)c4ccccc4)nc(C(=O)NCCNC(=O)NCC4CCN(Cc5ccccc5)CC4)nc32)[C@H](O)[C@@H]1O` [Example 12] displayed an IC50 of less than 100 nM.

`CCNC(=O)[C@H]1O[C@@H](n2cnc3c(NCC(c4ccccc4)c4ccccc4)nc(C(=O)NCCNC(=O)NCc4ccccc4)nc32)[C@H](O)[C@@H]1O` [Example 13] yielded a half-maximal inhibitory concentration (IC50) of less than 100 nM.

With `CCNC(=O)[C@H]1O[C@@H](n2cnc3c(NCC(c4ccccc4)c4ccccc4)nc(C(=O)NCCNC(=O)NCCc4ccccc4)nc32)[C@H](O)[C@@H]1O` [Example 14], the IC50 was less than 100 nM.

In turn, `CCNC(=O)[C@H]1O[C@@H](n2cnc3c(NCC(c4ccccc4)c4ccccc4)nc(C(=O)NCCNC(=O)NC4CCCCC4)nc32)[C@H](O)[C@@H]1O` [Example 15] came in with an IC50 of less than 100 nM.

Compound `CCNC(=O)[C@H]1O[C@@H](n2cnc3c(NCC(c4ccccc4)c4ccccc4)nc(C(=O)NCCNC(=O)NCCN4CCc5ccccc5C4)nc32)[C@H](O)[C@@H]1O` [Example 16] gave an IC50 of less than 100 nM.

For `CCNC(=O)[C@H]1O[C@@H](n2cnc3c(NCC(c4ccccc4)c4ccccc4)nc(C(=O)NCCCNC(=O)NCCN4CCCCC4)nc32)[C@H](O)[C@@H]1O` [Example 18], the IC50 is less than 100 nM.

On to `CCNC(=O)[C@H]1O[C@@H](n2cnc3c(NCC(c4ccccc4)c4ccccc4)nc(C(=O)NCCCNC(=O)NCCN(C(C)C)C(C)C)nc32)[C@H](O)[C@@H]1O` [Example 19], for which the IC50 is less than 100 nM.

Regarding `CCNC(=O)[C@H]1O[C@@H](n2cnc3c(NCC(c4ccccc4)c4ccccc4)nc(C(=O)N[C@H]4CC[C@H](NC(=O)NCCN5CCCCC5)CC4)nc32)[C@H](O)[C@@H]1O` [Example 20], the 50% inhibitory concentration (IC50) was less than 100 nM.

`CCNC(=O)[C@H]1O[C@@H](n2cnc3c(NCC(c4ccccc4)c4ccccc4)nc(C(=O)N[C@H]4CC[C@H](NC(=O)NCCN(C(C)C)C(C)C)CC4)nc32)[C@H](O)[C@@H]1O` [Example 21] displayed a 50% inhibitory concentration (IC50) of less than 100 nM.

In the case of `CCNC(=O)[C@H]1O[C@@H](n2cnc3c(NCC(c4ccccc4)c4ccccc4)nc(C(=O)NC4CCN(C(=O)NCCN(C(C)C)C(C)C)CC4)nc32)[C@H](O)[C@@H]1O` [Example 22], the IC50 was less than 100 nM.

As to `CCNC(=O)[C@H]1O[C@@H](n2cnc3c(NCC(c4ccccc4)c4ccccc4)nc(C(=O)N[C@@H]4CCN(C(=O)NCCN(C(C)C)C(C)C)C4)nc32)[C@H](O)[C@@H]1O` [Example 23], the 50% inhibitory concentration (IC50) was less than 100 nM.

`CCNC(=O)[C@H]1O[C@@H](n2cnc3c(NCC(c4ccccc4)c4ccccc4)nc(C(=O)N[C@@H]4CCN(C(=O)NCc5ccccc5)C4)nc32)[C@H](O)[C@@H]1O` [Example 24] showed an IC50 of less than 100 nM.

`CCNC(=O)[C@H]1O[C@@H](n2cnc3c(NCC(c4ccccc4)c4ccccc4)nc(C(=O)N4CCC(NC(=O)NCc5ccccc5)CC4)nc32)[C@H](O)[C@@H]1O` [Example 25] registered a 50% inhibitory concentration (IC50) of less than 100 nM.

`CCNC(=O)[C@H]1O[C@@H](n2cnc3c(NCC(c4ccccc4)c4ccccc4)nc(C(=O)N[C@@H]4CCN(C(=O)NCCc5ccccc5)C4)nc32)[C@H](O)[C@@H]1O` [Example 26]: the half-inhibitory concentration (IC50) is less than 100 nM.
